Molecular target: T1, T1R1 with G protein α-subunits (α15 and α16/Z chimeric protein) (Mus musculus, UniProt Q99PG6)
T1 construct: expressed in transfected cells; host or cells: 293 cells, RCB 1637 (human embryonic kidney)
T1 sequence (Q99PG6 20-842 L120P/N244D/D281A/N309Y/P311T/S314P/H418Y): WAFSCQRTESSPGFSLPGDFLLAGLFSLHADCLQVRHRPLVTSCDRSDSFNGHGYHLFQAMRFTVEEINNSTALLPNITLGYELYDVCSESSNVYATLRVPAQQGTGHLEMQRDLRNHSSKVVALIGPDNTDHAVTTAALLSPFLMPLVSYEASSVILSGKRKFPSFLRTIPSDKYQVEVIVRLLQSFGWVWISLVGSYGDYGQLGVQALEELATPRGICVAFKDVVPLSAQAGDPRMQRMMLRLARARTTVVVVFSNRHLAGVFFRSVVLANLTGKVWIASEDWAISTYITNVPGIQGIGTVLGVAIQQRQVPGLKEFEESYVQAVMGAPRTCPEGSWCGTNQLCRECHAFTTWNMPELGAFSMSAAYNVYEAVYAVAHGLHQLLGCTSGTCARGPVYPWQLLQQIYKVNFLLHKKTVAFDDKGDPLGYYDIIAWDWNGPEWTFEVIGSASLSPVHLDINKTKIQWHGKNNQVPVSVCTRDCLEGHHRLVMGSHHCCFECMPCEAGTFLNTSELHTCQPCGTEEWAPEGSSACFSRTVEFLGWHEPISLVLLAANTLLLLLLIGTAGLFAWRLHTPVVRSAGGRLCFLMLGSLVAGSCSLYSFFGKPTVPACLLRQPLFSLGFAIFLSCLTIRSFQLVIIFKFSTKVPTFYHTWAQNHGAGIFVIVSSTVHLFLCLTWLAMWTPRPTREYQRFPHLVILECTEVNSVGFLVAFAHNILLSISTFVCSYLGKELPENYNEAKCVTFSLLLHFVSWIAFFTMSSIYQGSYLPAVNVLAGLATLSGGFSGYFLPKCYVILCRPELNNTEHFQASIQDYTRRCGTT
Experiment: Intracellular calcium ion assay, 293 cells coexpressing G protein α-subunits and T1R1
Type: cell-based
Details: 293 cells: T1R1 + G protein α-subunits; 0.67 ml of 1 M saccharide solution added to 2 ml cell suspension; FLUO-4 AM
Method: The coexpression vector for the G protein α-subunit α15 and the G protein α16/Z chimeric protein (hereinafter designated as “G protein α-subunits”) obtained in Example 1-3 was gene transferred to 293 cells, RCB 1637, a human embryonic kidney cell line, available from the Riken Bioresource Center, Ibaraki, Japan, by conventional lipofection. The gene transferred cells were suspended in Dulbecco's Modified Eagle's Medium (D-MEM) supplemented with 1 mg/L of “PUROMYCIN”, a trade mane of puromycin commercialized by Edge Biosystems, MD, USA, and 10% (v/v) of fetal calf serum to give a cell density of 2×10^6 cells/ml and cultured in a plastic petri dish for cell culture. […]
The captioned reactivity test was conducted according to a conventional intracellular calcium ion assay: 293 Cells prepared in Example 3, capable of coexpressing the G protein α-subunits and the sweet taste receptor(s), were cultured in a plastic petri dish for cell culture until reaching its confluent phase. […] Two milliliters of the resultant cell suspension was injected into a glass cuvette, commercialized by Hitachi, Ltd., Tokyo, Japan, and analyzed on “HITACHI 650-40”, a fluorescence spectrophotometer commercialized by Hitachi, Ltd., Tokyo, Japan. […]

## OC[C@H]1O[C@@](CO)(O[C@H]2O[C@H](CO)[C@@H](O)[C@H](O)[C@H]2O)[C@@H](O)[C@@H]1O [Sucrose, reference compound]
  Influx of calcium ion: Negative

## OC[C@H]1O[C@H](O[C@H]2O[C@H](CO)[C@@H](O)[C@H](O)[C@H]2O)[C@H](O)[C@@H](O)[C@@H]1O [Trehalose]
  Influx of calcium ion: Negative

Source: patent US20050048508A1, “Trehalose receptor and method for detecting trehalose with the same” (KABUSHIKI KAISHA HAYASHIBARA SEIBUTSU KAGAKU KENKYUJO, priority 2002, published 2005)
